Source: patent publication US20080096894A1, “Anti-Bacterial Compounds” (ASTON UNIVERSITY, priority 2005, published 2008)
Converted amounts (≈) assume the structure as drawn.

Tests used:
Assay in all cases: MIC, agar dilution, multipoint inoculator
S. aureus = type: cell-based, Staphylococcus aureus; conditions: upper value of MIC reading
Experimental: (§1) This activity was measured using a multipoint inoculator method as follows. The MIC for each compound was measured using an agar dilution method (Onda, H., et al., Int. J. Antimicrob. Agents. 18, 263 (2001)) (Mueller Hinton agar) by means of a multipoint inoculator delivering 10^4 colony forming units per spot.

MRSA = type: cell-based, methicillin-resistant Staphylococcus aureus; conditions: for MIC: upper value of MIC reading, in µg/mL; for MRSA MIC range: panel of ten MRSA strains (clinical isolates)
Experimental: as §1
‘Staph’ refers to the reference strain of S. aureus (NCTC 6571). A tick in the MRSA column refers to a positive zone against MRSA strain 96-7474, and the MIC range (in μg/ml) which follows is that found against a panel of ten MRSA strains. Where MIC values are given for MRSA, these are stated as a range of values, as testing was carried out on a panel of clinical isolates.

E. faecium = type: cell-based, Enterococcus faecium; conditions: upper value of MIC reading
Experimental: as §1

S. epidemisis = type: cell-based, Staphylococcus epidermidis; conditions: upper value of MIC reading
Experimental: as §1

E. faecalis = type: cell-based; conditions: upper value of MIC reading
Experimental: as §1

S. aboni = type: cell-based; conditions: S. aboni NCTC 6017; upper value of MIC reading
Experimental: as §1

S. haemolyticus = type: cell-based; conditions: S. haemolyticus Isolate 1; upper value of MIC reading
Experimental: as §1

S. maltophilia = type: cell-based; conditions: S. maltophilia NCTC 10257; upper value of MIC reading
Experimental: as §1

K. pneumoniae = type: cell-based, Klebsiella pneumoniae; conditions: K. pneumoniae 327; upper value of MIC reading
Experimental: as §1

S. marcesens = type: cell-based, Serratia marcescens; conditions: S. marcesens 4444; upper value of MIC reading
Experimental: as §1

P. auriginosa = type: cell-based, Pseudomonas aeruginosa; conditions: P. auriginosa NCTC 6749; upper value of MIC reading
Experimental: as §1

E. cloacae = type: cell-based, Enterobacter cloacae; conditions: E. cloacae NCTC 11582; upper value of MIC reading
Experimental: as §1

B. bronchiseptica = type: cell-based; conditions: B. bronchiseptica NCTC 8344; upper value of MIC reading
Experimental: as §1

`NC(=NN=Cc1ccc(O)c(O)c1)c1ccc2ccccc2n1` [QNca] gave an MIC (S. aureus; S. aureus Cowan 1) of 128 µg/mL (≈ 418 µM), an MIC (S. aureus; S. aureus NCTC 6571) of 128 µg/mL (≈ 418 µM) and an MIC (S. aureus; S. aureus NCTC 10788) of 128 µg/mL (≈ 418 µM). It also gave an MIC (MRSA; MRSA Isolate 1) of 128, an MIC (MRSA; MRSA Isolate 2) of 128 and an MIC (MRSA; MRSA Isolate 3) of 128. The MIC (MRSA; MRSA Isolate 4) was 128, the MIC (MRSA; MRSA Isolate 5) was 128 and the MIC (MRSA; MRSA Isolate 6) was 128. For the same compound, the MIC (MRSA; MRSA Isolate 7) was 128, the MIC (MRSA; MRSA Isolate 8) was 128 and the MIC (MRSA; MRSA Isolate 9) was 128. The MIC (MRSA; MRSA Isolate 10) was 128, the “MRSA MIC range” value (MRSA) was 64 to 128 µg/mL and the MIC (E. faecium; E. faecium ACTCC 10541) was 256 µg/mL (≈ 836 µM). For the same compound, the MIC (E. faecium; E. faecium NCTC 7171) was 256 µg/mL (≈ 836 µM), the MIC (S. epidemisis; S. epidemisis Isolate 1) was 64 µg/mL (≈ 209 µM) and the MIC (S. epidemisis; S. epidemisis NCTC 11047) was 64 µg/mL (≈ 209 µM). The MIC (E. faecalis; E. faecalis EBH1) was 256 µg/mL (≈ 836 µM), the MIC (E. faecalis; E. faecalis Isolate 1) was 256 µg/mL (≈ 836 µM) and the MIC (E. faecalis; E. faecalis Isolate 2) was 256 µg/mL (≈ 836 µM). For the same compound, the MIC (E. faecalis; E. faecalis Isolate 3) was 256 µg/mL (≈ 836 µM), the MIC (E. faecalis; E. faecalis Isolate 4) was 256 µg/mL (≈ 836 µM) and the MIC (E. faecalis; E. faecalis Isolate 5) was 256 µg/mL (≈ 836 µM). For the same compound, the MIC (E. faecalis; E. faecalis NCTC 5957) was 256 µg/mL (≈ 836 µM), the MIC (S. aboni) was 256 µg/mL (≈ 836 µM) and the MIC (S. haemolyticus) was 128 µg/mL (≈ 418 µM). The MIC (S. maltophilia) was 256 µg/mL (≈ 836 µM), the MIC (K. pneumoniae) was 256 µg/mL (≈ 836 µM) and the MIC (S. marcesens) was 256 µg/mL (≈ 836 µM). The MIC (P. auriginosa) was 256 µg/mL (≈ 836 µM) and the MIC (E. cloacae) was 32 µg/mL (≈ 104 µM).
`NC(=NN=Cc1c(O)ccc2ccccc12)c1cccnc1` [Compound 3PYdb] showed an MIC (S. aureus; S. aureus Cowan 1) of 256 µg/mL (≈ 882 µM), an MIC (S. aureus; S. aureus NCTC 6571) of 256 µg/mL (≈ 882 µM) and an MIC (S. aureus; S. aureus NCTC 10788) of 256 µg/mL (≈ 882 µM). The MIC (MRSA; MRSA Isolate 1) was 256, the MIC (MRSA; MRSA Isolate 2) was 256 and the MIC (MRSA; MRSA Isolate 3) was 256. For the same compound, the MIC (MRSA; MRSA Isolate 4) was 256, the MIC (MRSA; MRSA Isolate 5) was 256 and the MIC (MRSA; MRSA Isolate 6) was 256. The MIC (MRSA; MRSA Isolate 7) was 256, the MIC (MRSA; MRSA Isolate 8) was 256 and the MIC (MRSA; MRSA Isolate 9) was 256. For the same compound, the MIC (MRSA; MRSA Isolate 10) was 256, the “MRSA MIC range” value (MRSA) was 128 to 256 µg/mL and the MIC (S. epidemisis; S. epidemisis Isolate 1) was 256 µg/mL (≈ 882 µM). The MIC (S. epidemisis; S. epidemisis NCTC 11047) was 256 µg/mL (≈ 882 µM), the MIC (B. bronchiseptica) was 256 µg/mL (≈ 882 µM) and the MIC (E. faecalis; E. faecalis Isolate 2) was 256 µg/mL (≈ 882 µM). For the same compound, the MIC (E. faecalis; E. faecalis Isolate 5) was 256 µg/mL (≈ 882 µM), the MIC (S. aboni) was 32 µg/mL (≈ 110 µM) and the MIC (S. haemolyticus) was 256 µg/mL (≈ 882 µM). It also gave an MIC (S. maltophilia) of 266 µg/mL (≈ 916 µM), an MIC (K. pneumoniae) of 256 µg/mL (≈ 882 µM) and an MIC (P. auriginosa) of 256 µg/mL (≈ 882 µM). For the same compound, the MIC (E. cloacae) was 256 µg/mL (≈ 882 µM).
Compound `CCOc1ccccc1C=NN=C(N)c1cccnc1` [Compound 3PYay] has an MIC (S. aureus; S. aureus NCTC 6571) greater than 256 µg/mL, an MIC (MRSA; MRSA Isolate 1) of 256 and an MIC (MRSA; MRSA Isolate 2) of 128. The MIC (MRSA; MRSA Isolate 3) was 128, the MIC (MRSA; MRSA Isolate 4) was 128 and the MIC (MRSA; MRSA Isolate 5) was 128. For the same compound, the MIC (MRSA; MRSA Isolate 10) was 256, the “MRSA MIC range” value (MRSA) was greater than 256 µg/mL and the MIC (S. epidemisis; S. epidemisis NCTC 11047) was 128 µg/mL (≈ 477 µM). For the same compound, the MIC (E. faecalis; E. faecalis EBH1) was 128 µg/mL (≈ 477 µM), the MIC (E. faecalis; E. faecalis Isolate 1) was 128 µg/mL (≈ 477 µM) and the MIC (E. faecalis; E. faecalis Isolate 2) was 128 µg/mL (≈ 477 µM). The MIC (E. faecalis; E. faecalis NCTC 5957) was 128 µg/mL (≈ 477 µM), the MIC (S. haemolyticus) was 256 µg/mL (≈ 954 µM) and the MIC (S. maltophilia) was 256 µg/mL (≈ 954 µM). For the same compound, the MIC (K. pneumoniae) was 256 µg/mL (≈ 954 µM), the MIC (S. marcesens) was 256 µg/mL (≈ 954 µM) and the MIC (P. auriginosa) was 128 µg/mL (≈ 477 µM).
